Read-outs that look alike come from different tables or passages of the source. Marks after values point to notes of the source that are not given here.
Assay: logP determination by retention times (calibration with alkan-2-ones)
Settings: for logP: HPLC, reversed-phase C 18, EEC Directive 79/831 Annex V.A8, method *: 40° C., 0.1% aqueous formic acid and acetonitrile, linear gradient 10% to 95% acetonitrile

Row | Compound | chromatographic logP | other results
1 | CCc1nc(C)c(-c2ccnc(Nc3cccc(O)c3)n2)s1 [Example 150, 3-{[4-(2-ethyl-4-methyl-1,3-thiazol-5-yl)pyrimidin-2-yl]amino}phenol] | 2.12 | –
2 | COCc1nc(C)c(-c2ccnc(Nc3ccc(C#N)cc3)n2)s1 [Example 179, 4-({4-[2-(methoxymethyl)-4-methyl-1,3-thiazol-5-yl]pyrimidin-2-yl}amino)benzonitrile] | 2.57 | –
3 | Cc1nc(NC(C)(C)C)sc1-c1ccnc(Nc2ccc(O)cc2)n1 [Example 180, 4-({4-[2-(tert-butylamine)-4-methyl-1,3-thiazol-5-yl]pyrimidin-2-yl}amino)phenol] | – | logP: 1.67*
4 | COc1cccc(Nc2nccc(-c3sc(C)nc3C)n2)c1 [Example 183, 4-(2,4-dimethyl-1,3-thiazol-5-yl)-N-(3-methoxyphenyl)pyrimidine-2-amine] | 2.64 | –
5 | Cc1nc(C)c(-c2ccnc(Nc3cccc([N+](=O)[O-])c3)n2)s1 [Example 184, 4-(2,4-dimethyl-1,3-thiazol-5-yl)-N-(3-nitrophenyl)pyrimidine-2-amine] | 2.61 | –
6 | Cc1nc(C)c(-c2ccnc(Nc3ccc(F)c(C)c3)n2)s1 [Example 185, 4-(2,4-dimethyl-1,3-thiazol-5-yl)-N-(4-fluoro-3-methylphenyl)pyrimidine-2-amine] | 3.07 | –
7 | COc1ccc(Nc2nccc(-c3sc(C)nc3C)n2)cn1 [Example 187, 4-(2,4-dimethyl-1,3-thiazol-5-yl)-N-(6-methoxypyridin-3-yl)pyrimidine-2-amine] | 2.09 | –
8 | Cc1nc(C)c(-c2ccnc(Nc3cccc(C(F)(F)F)c3)n2)s1 [Example 188, 4-(2,4-dimethyl-1,3-thiazol-5-yl)-N-[3-(trifluoromethyl)phenyl]pyrimidine-2-amine] | 3.3 | –
9 | Cc1nc(C)c(-c2ccnc(Nc3ccc(C(F)(F)F)cc3)n2)s1 [Example 189, 4-(2,4-dimethyl-1,3-thiazol-5-yl)-N-[4-(trifluoromethyl)phenyl]pyrimidine-2-amine] | 3.56 | –
10 | COc1ccc(Nc2nccc(-c3sc(N)nc3C)n2)cc1OC [Example 202, 4-(2-amino-4-methyl-1,3-thiazol-5-yl)-N-(3,4-dimethoxyphenyl)pyrimidine-2-amine] | 1.28 | –
11 | Cc1nc(N)sc1-c1ccnc(Nc2cccc(Cl)c2)n1 [Example 204, 4-(2-amino-4-methyl-1,3-thiazol-5-yl)-N-(3-chlorophenyl)pyrimidine-2-amine] | 1.78 | –
12 | Cc1nc(N)sc1-c1ccnc(Nc2cccc([N+](=O)[O-])c2)n1 [Example 206, 4-(2-amino-4-methyl-1,3-thiazol-5-yl)-N-(3-nitrophenyl)pyrimidine-2-amine] | 1.5 | –
13 | Cc1cc(Nc2nccc(-c3sc(N)nc3C)n2)ccc1F [Example 207, 4-(2-amino-4-methyl-1,3-thiazol-5-yl)-N-(4-fluoro-3-methylphenyl)pyrimidine-2-amine] | 1.68 | –
14 | Cc1nc(N)sc1-c1ccnc(Nc2ccc(F)cc2)n1 [Example 208, 4-(2-amino-4-methyl-1,3-thiazol-5-yl)-N-(4-fluorophenyl)pyrimidine-2-amine] | 1.56 | –
15 | Cc1nc(N)sc1-c1ccnc(Nc2cccc(C(F)(F)F)c2)n1 [Example 209, 4-(2-amino-4-methyl-1,3-thiazol-5-yl)-N-[3-(trifluoromethyl)phenyl]pyrimidine-2-amine] | 1.97 | –
16 | COc1cc(Nc2nccc(-c3sc(C4CCCCC4)nc3C)n2)cc(OC)c1OC [Example 215, 4-(2-cyclohexyl-4-methyl-1,3-thiazol-5-yl)-N-(3,4,5-trimethoxyphenyl)pyrimidine-2-amine] | 3.97 | –
17 | Cc1nc(C2CCCCC2)sc1-c1ccnc(Nc2cccc([N+](=O)[O-])c2)n1 [Example 216, 4-(2-cyclohexyl-4-methyl-1,3-thiazol-5-yl)-N-(3-nitrophenyl)pyrimidine-2-amine] | 4.63 | chromatographic logP (logP(HCOOH), HCOOH): 4.63
18 | COc1ccc(Nc2nccc(-c3sc(C4CCCCC4)nc3C)n2)cn1 [Example 217, 4-(2-cyclohexyl-4-methyl-1,3-thiazol-5-yl)-N-(6-methoxypyridin-3-yl)pyrimidine-2-amine] | 3.86 | –
19 | Cc1nc(C2CCCCC2)sc1-c1ccnc(Nc2ccc(C(F)(F)F)cc2)n1 [Example 218, 4-(2-cyclohexyl-4-methyl-1,3-thiazol-5-yl)-N-[4-(trifluoromethyl)phenyl]pyrimidine-2-amine] | 5.62 | –
20 | Cc1nc(C2CCCCC2)sc1-c1ccnc(Nc2ccccc2)n1 [Example 219, 4-(2-cyclohexyl-4-methyl-1,3-thiazol-5-yl)-N-phenylpyrimidine-2-amine] | 4.65 | –
21 | Cc1nc(C2CC2)sc1-c1ccnc(Nc2ccc3c(c2)OCCO3)n1 [Example 220, 4-(2-cyclopropyl-4-methyl-1,3-thiazol-5-yl)-N-(2,3-dihydro-1,4-benzodioxin-6-yl)pyrimidine-2-amine] | 2.91 | –

Row | Compound | chromatographic logP | other results
22 | COc1ccc(OC)c(Nc2nccc(-c3sc(C4CC4)nc3C)n2)c1 [Example 221, 4-(2-cyclopropyl-4-methyl-1,3-thiazol-5-yl)-N-(2,5-dimethoxyphenyl)pyrimidine-2-amine] | 3.71 | –
23 | COc1ccc(Nc2nccc(-c3sc(C4CC4)nc3C)n2)cc1OC [Example 223, 4-(2-cyclopropyl-4-methyl-1,3-thiazol-5-yl)-N-(3,4-dimethoxyphenyl)pyrimidine-2-amine] | 2.6 | –
24 | COc1cccc(Nc2nccc(-c3sc(C4CC4)nc3C)n2)c1 [Example 224, 4-(2-cyclopropyl-4-methyl-1,3-thiazol-5-yl)-N-(3-methoxyphenyl)pyrimidine-2-amine] | 3.28 | –
25 | Cc1nc(C2CC2)sc1-c1ccnc(Nc2cccc([N+](=O)[O-])c2)n1 [Example 225, 4-(2-cyclopropyl-4-methyl-1,3-thiazol-5-yl)-N-(3-nitrophenyl)pyrimidine-2-amine] | 3.29 | –
26 | Cc1cc(Nc2nccc(-c3sc(C4CC4)nc3C)n2)ccc1F [Example 226, 4-(2-cyclopropyl-4-methyl-1,3-thiazol-5-yl)-N-(4-fluoro-3-methylphenyl)pyrimidine-2-amine] | 3.71 | –
27 | Cc1nc(C2CC2)sc1-c1ccnc(Nc2ccc(F)cc2)n1 [Example 227, 4-(2-cyclopropyl-4-methyl-1,3-thiazol-5-yl)-N-(4-fluorophenyl)pyrimidine-2-amine] | 3.31 | –
28 | COc1ccc(Nc2nccc(-c3sc(C4CC4)nc3C)n2)cn1 [Example 228, 4-(2-cyclopropyl-4-methyl-1,3-thiazol-5-yl)-N-(6-methoxypyridin-3-yl)pyrimidine-2-amine] | 2.53 | –
29 | Cc1nc(C2CC2)sc1-c1ccnc(Nc2cccc(C(F)(F)F)c2)n1 [Example 229, 4-(2-cyclopropyl-4-methyl-1,3-thiazol-5-yl)-N-[3-(trifluoromethyl)phenyl]pyrimidine-2-amine] | 4.04 | –
30 | Cc1nc(C2CC2)sc1-c1ccnc(Nc2ccc(C(F)(F)F)cc2)n1 [Example 230, 4-(2-cyclopropyl-4-methyl-1,3-thiazol-5-yl)-N-[4-(trifluoromethyl)phenyl]pyrimidine-2-amine] | 4.2 | –
31 | Cc1nc(C2CC2)sc1-c1ccnc(Nc2ccccc2)n1 [Example 231, 4-(2-cyclopropyl-4-methyl-1,3-thiazol-5-yl)-N-phenylpyrimidine-2-amine] | 3.26 | –
32 | CCc1nc(C)c(-c2ccnc(Nc3cccc(OC)c3)n2)s1 [Example 236, 4-(2-ethyl-4-methyl-1,3-thiazol-5-yl)-N-(3-methoxyphenyl)pyrimidine-2-amine] | 3 | –
33 | CCc1nc(C)c(-c2ccnc(Nc3cccc([N+](=O)[O-])c3)n2)s1 [Example 237, 4-(2-ethyl-4-methyl-1,3-thiazol-5-yl)-N-(3-nitrophenyl)pyrimidine-2-amine] | 3.14 | –
34 | CCc1nc(C)c(-c2ccnc(Nc3cccc(C(F)(F)F)c3)n2)s1 [Example 241, 4-(2-ethyl-4-methyl-1,3-thiazol-5-yl)-N-[3-(trifluoromethyl)phenyl]pyrimidine-2-amine] | 3.85 | –
35 | COc1cccc(Nc2nccc(-c3sc(C(C)C)nc3C)n2)c1 [Example 245, 4-(2-isopropyl-4-methyl-1,3-thiazol-5-yl)-N-(3-methoxyphenyl)pyrimidine-2-amine] | 3.5 | –
36 | Cc1nc(C(C)C)sc1-c1ccnc(Nc2cccc([N+](=O)[O-])c2)n1 [Example 246, 4-(2-isopropyl-4-methyl-1,3-thiazol-5-yl)-N-(3-nitrophenyl)pyrimidine-2-amine] | 3.55 | –
37 | Cc1nc(C(C)C)sc1-c1ccnc(Nc2cccc(C(F)(F)F)c2)n1 [Example 248, 4-(2-isopropyl-4-methyl-1,3-thiazol-5-yl)-N-[3-(trifluoromethyl)phenyl]pyrimidine-2-amine] | 4.3 | –
38 | Cc1nc(C(C)C)sc1-c1ccnc(Nc2ccc(N3CCN(C)CC3)cc2)n1 [Example 249, 4-(2-isopropyl-4-methyl-1,3-thiazol-5-yl)-N-[4-(4-methylpiperazin-1-yl)phenyl]pyrimidine-2-amine] | 1.71 | –
39 | Cc1ncsc1-c1ccnc(Nc2cccc(C(F)(F)F)c2)n1 [Example 267, 4-(4-methyl-1,3-thiazol-5-yl)-N-[3-(trifluoromethyl)phenyl]pyrimidine-2-amine] | 3.14 | –
40 | Cc1nc2c(s1)-c1nc(Nc3ccc(O)cc3)ncc1CC2 [Example 281, 4-[(2-methyl-4,5-dihydro[1,3]thiazole[4,5-h]quinazolin-8-yl)amino]phenol] | – | logP: 1.41*
41 | COCC(C)Nc1nc(C)c(-c2ccnc(Nc3ccc(O)cc3)n2)s1 (stereo not shown) [Example 284, 4-[(4-{2-[(2-methoxy-1-methylethyl)amino]-4-methyl-1,3-thiazol-5-yl}pyrimidin-2-yl)amino]phenol] | 1.4 | –
42 | COc1cc(Nc2nccc(-c3sc(N(C)C)nc3C(F)(F)F)n2)cc(OC)c1OC [Example 291, 4-[2-(dimethylamine)-4-(trifluoromethyl)-1,3-thiazol-5-yl]-N-(3,4,5-trimethoxyphenyl)pyrimidine-2-amine] | – | logP: 3.43*

— US20090030024A1, “THIAZOLES AS FUNGICIDES” (priority 2005, published 2009)
